Test results from US8377913B2, “Vitamin D receptor activators and methods of making” (AbbVie Inc., priority 2007, dated 2013).

How the values were obtained:
5/6 NX rats = test: Study 1: serum PTH, ionized Ca++, total Ca++ and phosphorus in the 5/6 NX rat model; assay type: in vivo; settings: for decrease in PTH: Day 0 vs. Day 13
Protocol: Study 1: The purpose of the study was to compare the effects of Example 1 on serum PTH, ionized Ca++, total Ca++ and phosphorus in the 5/6 NX rat model.
Methods: 5/6 NX rats were fed a normal diet (Teklad 8640; 0.9% Phos. and 1.1% Ca++) for 4 weeks prior to study at 6 weeks uremia, and were maintained on this diet for the duration of the study. 5/6 NX rats were treated with vehicle and 10, 30 or 100 μg/kg of A-Example 1. Rats were dosed i.p. 3×/week for 2 weeks. Blood was collected on Days 0 and 13 for determination of concentrations of PTH, ionized Ca++, total Ca++ and phosphorus.

[1] = test system: Human promyelocytic leukemia (HL60) cells; test: HL-60 Differentiation; assay type: cell-based; settings: HL-60, 96 h, four days incubation, NBT, absorbance 570 nm
Protocol: Human promyelocytic leukemia (HL60) cells were obtained from the American Type Culture Collection (ATCC Cat. # CCL-240, Manassas, Va.). Cells were maintained in RPMI 1640 medium (commercially available from Invitrogen, Carlsbad, Calif.) containing 10% fetal bovine serum (commercially available from Invitrogen, Carlsbad, Calif.) at 37° C. with 5% CO2. Cells were passaged weekly and were not allowed to become >90% confluent. For the assay, cells were plated at 5×10^5 cells per well in 200 uL media. Test compounds were diluted in media in concentrations between 10^−6-10^−10 M and then added to the appropriate wells. Cells were then incubated for four days at 37° C. in 5% CO2 atmosphere. After incubation, media was aspirated from each well and 75 uL of NBT solution (nitroblue tetrazolinium: 200 ng/mL PMA (phorbol 12-myrystate 13-acetate) and 2 mg/ml NBT (nitroblue tetrazolium) in distilled H2O) was added to each well followed by further incubation for 2 hours at 37° C. Following incubation, 150 uL lysis buffer (225 mL dimethylformamide, 67.5 g SDS). PMA stock solution (2 mg/ml in ethanol) was added to each well and the plate was allowed to sit at room temperature for 4 hours. HL-60 cell differentiation was assayed, Effect of each compound on cell growth was examined as a function of time; absorbance in each well was measured at 570 nm.

[2] = test system: Thrombomodulin mRNA in human coronary artery smooth muscle cells (CASMC); test: Thrombomodulin mRNA in CASMC; assay type: cell-based; settings: Homo sapiens
Protocol: (§1) Primary culture of human coronary artery smooth muscle cells (CASMC) (commercially available from Cambrex, Walkersville, Md.) were grown in smooth muscle growth medium SmGM-2 (commercially available from Lonza Bioscience) containing 5.5 mM glucose, 5% FBS, 50 μg/ml gentamicin, 50 ng/ml amphotericin-B, 5 μg/ml insulin, 2 ng/ml human recombinant fibroblast growth factor (hFGF), and 0.5 ng/ml human recombinant epidermal growth factor (hEGF) at 37° C. in a humidified 5% CO2-95% air atmosphere. Cells were grown to >80% confluence and used within five passages.
(§2) Real-time reverse transcription-PCR was performed with a MyiQ Real-Time PCR Detection System (BioRad, Hercules, Calif.). Each sample has a final volume of 25 μl containing 100 ng of cDNA, […] each of the forward and reverse PCR primers and […] of the TaqMan™ probe for the gene of interest (Applied Biosystems, Foster City, Calif.). Temperature conditions consisted of a step of 5 minutes at 95° C., followed by 40 cycles of 60° C. for 1 minute and 95° C. for 15 seconds. Data was collected during each extension phase of the PCR reaction and analyzed with the software package (BioRad, Hercules, Calif.). Threshold cycles were determined for each gene. […]

[3] = test system: VDR (VDRE-luciferase-reporter construct); test: VDRE Reporter Gene Assay in HEK cells with stable expression of VDR; assay type: cell-based; settings: Homo sapiens, HEK293, 24 hours
Protocol: Compound activity was also assessed by looking at a Vitamin D Response Element (VDRE) reporter gene assay, Human Embryonic Kidney cells (HEK cells) with a stable expression of VDR were cultured in 96-well plates at ˜4×10^5 cells/mL (100 μL/well) in DMEM medium containing 10% fetal calf serum. Cells were transfected with 0.2 μg per well of a VDRE-luciferase-reporter construct (from Y. Li, University of Chicago) and then treated with test agents at indicated concentrations for 24 hours. The luciferase activity was then measured following the manufacturer's instructions (Promega, Madison, Wis.).

[4] = test system: Thrombospondin mRNA in human coronary artery smooth muscle cells (CASMC); test: Thrombospondin mRNA in CASMC; assay type: cell-based; settings: Homo sapiens
Protocol: as §1, §2

[5] = target: T1, recombinant full-length human Vitamin D nuclear receptor (Homo sapiens, UniProt P11473); test: biochemical
T1 sequence (P11473 1-427): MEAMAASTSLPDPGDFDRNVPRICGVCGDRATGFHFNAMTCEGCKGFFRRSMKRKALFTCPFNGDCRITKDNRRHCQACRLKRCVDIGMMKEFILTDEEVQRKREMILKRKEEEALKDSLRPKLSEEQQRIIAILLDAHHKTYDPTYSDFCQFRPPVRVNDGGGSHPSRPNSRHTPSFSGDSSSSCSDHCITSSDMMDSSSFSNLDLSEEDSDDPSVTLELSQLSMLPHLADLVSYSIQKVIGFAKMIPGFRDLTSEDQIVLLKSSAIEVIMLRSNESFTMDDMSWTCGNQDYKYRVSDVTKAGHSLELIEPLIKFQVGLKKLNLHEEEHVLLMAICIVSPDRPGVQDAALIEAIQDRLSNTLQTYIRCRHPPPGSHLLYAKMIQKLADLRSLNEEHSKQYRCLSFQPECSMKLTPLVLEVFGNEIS
Protocol: In vitro binding of selected compounds according to the invention to VDR was assessed using the following procedure. […] Each test compound was then serially diluted in binding buffer to concentrations appropriate for the assay, as one skilled in the art can determine.
Final assay volume was 100 uL. The filled plate was incubated overnight at 4° C. with gentle shaking. After 18 hours of incubation, 20 uL of wheat germ agglutinin-coated yttrium silicate scintillation proximity assay (SPA) beads (commercially available from Amersham Biosciences, Piscataway, N.J.; Part # RPNQ0270) resuspended in binding buffer was added to each well (200 ug/well) and the plate was incubated at room temperature for 2 hours with gentle shaking.

[6] = 5/6 NX rats, 100 μg/kg i.p. 3×/week for 2 weeks

- ionized Ca++ (5/6 NX rats; [6]): elevated
- total Ca++ (5/6 NX rats; [6]): elevated
- serum phosphorus levels (5/6 NX rats; 5/6 NX rats, 10, 30 or 100 μg/kg i.p. 3×/week for 2 weeks): did not affect
- EC50 [1]: 1.9 nM
- EC50 [2]: 2.2 nM
- EC50 [3]: 0.4 nM
- IC50 [4]: 0.004 nM
- IC50 [5]: 496 nM
Compound: C=C1[C@H](O)CC(=C/C=C2\CCC[C@]3(C)[C@@H]([C@H](C)COC(=O)C(C)(C)C)CC[C@@H]23)C[C@H]1O [Example 1, (2S)-2-[(1R,3R,7E, 17β)-1,3-dihydroxy-2-methylene-9,10-secoestra-5,7-dien-17-yl]propyl pivalate]
- decrease in PTH (5/6 NX rats; 5/6 NX rats, 30 μg/kg i.p. 3×/week for 2 weeks): 26%
- decrease in PTH (5/6 NX rats; [6]): 78%
